Where “and” joins values, the source holds several entries; their conditions need not be identical. Equal entries are not always repeated. Inconclusive results and toxic doses are left out.
Tested on: CD2F1 mice, L1210 leukemia ip, survival T/C
Assay: NCI In Vivo Anticancer Drug Screen. Data for tumor model L1210 Leukemia (intraperitoneal) in CD2F1 (CDF1) mice
Details: higher = longer survival
Summary of the method: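 Transplantable tumor in mice; compound-treated vs vehicle-treated groups. Read-out = treated/control ratio of the measured endpoint.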

[1] = endpoint: mean survival time, dose: 100.0 mg/kg/injection, schedule: Q01DX009 (ip), vehicle: Klucel (hydroxypropylcellulose) (HPC)
[2] = endpoint: mean survival time, dose: 200.0 mg/kg/injection, schedule: Q01DX009 (ip), vehicle: Klucel (hydroxypropylcellulose) (HPC)
[3] = endpoint: mean survival time, dose: 100.0 mg/kg/injection, schedule: Q04DX002 (ip), vehicle: saline with Tween-80
[4] = endpoint: mean survival time, dose: 200.0 mg/kg/injection, schedule: Q04DX002 (ip), vehicle: saline with Tween-80
[5] = endpoint: mean survival time, dose: 400.0 mg/kg/injection, schedule: Q04DX002 (ip), vehicle: saline with Tween-80
[6] = endpoint: mean survival time, dose: 100.0 mg/kg/injection, schedule: Q04DX003 (ip), vehicle: saline with Tween-80
[7] = endpoint: mean survival time, dose: 200.0 mg/kg/injection, schedule: Q04DX003 (ip), vehicle: saline with Tween-80
[8] = endpoint: mean survival time, dose: 400.0 mg/kg/injection, schedule: Q04DX003 (ip), vehicle: saline with Tween-80
[9] = endpoint: mean survival time, dose: 100.0 mg/kg/injection, schedule: Q01DX009 (ip), vehicle: saline with Tween-80
[10] = endpoint: mean survival time, dose: 200.0 mg/kg/injection, schedule: Q01DX009 (ip), vehicle: saline with Tween-80
[11] = endpoint: mean survival time, dose: 50.0 mg/kg/injection, schedule: Q01DX009 (ip), vehicle: saline with Tween-80
[12] = endpoint: mean survival time, dose: 6.25 mg/kg/injection, schedule: Q01DX009 (ip), vehicle: saline with Tween-80

O=C(O)/C=C/c1cccs1
T/C (endpoint: mean survival time, dose: 50.0 mg/kg/injection, schedule: Q01DX009 (ip), vehicle: Klucel (hydroxypropylcellulose) (HPC)): 101 % of control | T/C [1]: 101 % of control | T/C [2]: 96 % of control

CC12CC(c3ccccc3)C(C)(C(c3ccccc3)=C1c1ccccc1)C2(O)c1ccccc1 (stereo unspecified)
T/C [3]: 94 % of control | T/C [4]: 86 % of control | T/C [5]: 94 % of control

NCCc1nc[nH]c1[N+](=O)[O-]
T/C (endpoint: mean survival time, dose: 12.5 mg/kg/injection, schedule: Q01DX005 (ip), vehicle: water): 106 % of control | T/C (endpoint: mean survival time, dose: 25.0 mg/kg/injection, schedule: Q01DX005 (ip), vehicle: water): 97 % of control | T/C (endpoint: mean survival time, dose: 50.0 mg/kg/injection, schedule: Q01DX005 (ip), vehicle: water): 97 % of control | T/C (endpoint: mean survival time, dose: 100.0 mg/kg/injection, schedule: Q01DX005 (ip), vehicle: water): 103 % of control | T/C (endpoint: mean survival time, dose: 200.0 mg/kg/injection, schedule: Q01DX005 (ip), vehicle: water): 92 % of control

CC(=O)CCCCOC(C)=O
T/C [6]: 101 % of control | T/C [7]: 101 % of control | T/C [8]: 98 % of control

c1ccc(N/N=C(/c2ccccc2)c2ccccn2)cc1
T/C (endpoint: mean survival time, dose: 100.0 mg/kg/injection, schedule: Q01DX001 (ip), vehicle: saline with Tween-80): 103 % of control | T/C (endpoint: mean survival time, dose: 200.0 mg/kg/injection, schedule: Q01DX001 (ip), vehicle: saline with Tween-80): 111 % of control | T/C (endpoint: mean survival time, dose: 400.0 mg/kg/injection, schedule: Q01DX001 (ip), vehicle: saline with Tween-80): 105 % of control

NC(=O)c1ncc(-c2ccccc2)[nH]c1=O
T/C (endpoint: mean survival time, dose: 100.0 mg/kg/injection, schedule: Q04DX003 (ip), vehicle: saline): 93 % of control | T/C (endpoint: mean survival time, dose: 200.0 mg/kg/injection, schedule: Q04DX003 (ip), vehicle: saline): 98 % of control | T/C (endpoint: mean survival time, dose: 400.0 mg/kg/injection, schedule: Q04DX003 (ip), vehicle: saline): 102 % of control

CCOC(=O)C(C=O)(NC(=O)c1ccccc1)OCC (stereo unspecified)
T/C [9]: 100 % of control | T/C [10]: 105 % of control | T/C (endpoint: mean survival time, dose: 400.0 mg/kg/injection, schedule: Q01DX009 (ip), vehicle: saline with Tween-80): 96 % of control

Nc1ccc(N2CCNCC2)cc1
T/C [6]: 104 % of control | T/C [7]: 101 % of control

C(=C/C1CCCCC1)/C=C/C1CCCCC1
T/C [11]: 103 % of control | T/C [9]: 92 % of control | T/C [10]: 107 % of control

Cc1cc(-c2ccc(N=Nc3c(N)ccc4cc(S(=O)(=O)O)ccc34)c(C)c2)ccc1N=Nc1c(N)ccc2cc(S(=O)(=O)O)ccc12
T/C (endpoint: mean survival time, dose: 50.0 mg/kg/injection, schedule: Q01DX009 (ip), vehicle: saline): 101 % of control | T/C (endpoint: mean survival time, dose: 100.0 mg/kg/injection, schedule: Q01DX009 (ip), vehicle: saline): 101 % of control

CCCCCCCCCCCC(=O)[O][Pb]([CH2]C)([CH2]C)[CH2]C
T/C (endpoint: mean survival time, dose: 3.13 mg/kg/injection, schedule: Q01DX009 (ip), vehicle: saline with Tween-80): 87 % of control | T/C [12]: 104 % of control

C=C1C(=O)OC2CC(C)C3CC(OCCCl)OC(OCCCl)C3(C)CC12 (stereo unspecified)
T/C (endpoint: mean survival time, dose: 10.0 mg/kg/injection, schedule: Q01DX005 (ip), vehicle: water): 98 % of control | T/C (endpoint: mean survival time, dose: 20.0 mg/kg/injection, schedule: Q01DX005 (ip), vehicle: water): 96 % of control | T/C (endpoint: mean survival time, dose: 40.0 mg/kg/injection, schedule: Q01DX005 (ip), vehicle: water): 93 % of control | T/C (endpoint: mean survival time, dose: 50.0 mg/kg/injection, schedule: Q01DX005 (ip), vehicle: distilled water + Tween-80): 92 % of control | T/C (endpoint: mean survival time, dose: 80.0 mg/kg/injection, schedule: Q01DX005 (ip), vehicle: water): 94 % of control | T/C (endpoint: mean survival time, dose: 100.0 mg/kg/injection, schedule: Q01DX005 (ip), vehicle: distilled water + Tween-80): 97 % of control | T/C (endpoint: mean survival time, dose: 200.0 mg/kg/injection, schedule: Q01DX005 (ip), vehicle: distilled water + Tween-80): 89 % of control | T/C (endpoint: mean survival time, dose: 400.0 mg/kg/injection, schedule: Q01DX005 (ip), vehicle: distilled water + Tween-80): 94 % of control

COC(=O)N1c2ccccc2C=CC1C#N (stereo unspecified)
T/C [12]: 89 % of control | T/C (endpoint: mean survival time, dose: 12.5 mg/kg/injection, schedule: Q01DX009 (ip), vehicle: saline with Tween-80): 103 % of control | T/C (endpoint: mean survival time, dose: 12.5 mg/kg/injection, schedule: Q04DX003 (ip), vehicle: saline with Tween-80): 97 % of control | T/C (endpoint: mean survival time, dose: 25.0 mg/kg/injection, schedule: Q01DX009 (ip), vehicle: saline with Tween-80): 95 % of control | T/C (endpoint: mean survival time, dose: 25.0 mg/kg/injection, schedule: Q04DX003 (ip), vehicle: saline with Tween-80): 97 % of control | T/C [11]: 98 % of control | T/C (endpoint: mean survival time, dose: 50.0 mg/kg/injection, schedule: Q04DX003 (ip), vehicle: saline with Tween-80): 97 % of control | T/C [9]: 101 % of control | T/C [6]: 98 % of control | T/C [7]: 95 % of control

CC1=NCCCN=C(C)C([N+](=O)[O-])C=NC(C)(C)CN=CC1[N+](=O)[O-].[Ni] (stereo unspecified)
T/C (endpoint: mean survival time, dose: 12.5 mg/kg/injection, schedule: Q04DX002 (ip), vehicle: saline with Tween-80): 97 % of control | T/C (endpoint: mean survival time, dose: 25.0 mg/kg/injection, schedule: Q04DX002 (ip), vehicle: saline with Tween-80): 97 % of control | T/C (endpoint: mean survival time, dose: 50.0 mg/kg/injection, schedule: Q04DX002 (ip), vehicle: saline with Tween-80): 93 % of control

O=C(NCc1ccccc1)c1ccccc1/C(=N/O)c1ccccc1
T/C (endpoint: mean survival time, dose: 100.0 mg/kg/injection, schedule: Q01DX001 (ip), vehicle: saline sonified): 92 % of control | T/C (endpoint: mean survival time, dose: 200.0 mg/kg/injection, schedule: Q01DX001 (ip), vehicle: saline sonified): 94 % of control | T/C (endpoint: mean survival time, dose: 400.0 mg/kg/injection, schedule: Q01DX001 (ip), vehicle: saline sonified): 88 % of control

c1ccc(N/N=C2/CSCc3ccccc32)cc1
T/C [1]: 98 % of control | T/C [2]: 93 % of control | T/C (endpoint: mean survival time, dose: 400.0 mg/kg/injection, schedule: Q01DX009 (ip), vehicle: Klucel (hydroxypropylcellulose) (HPC)): 93 % of control

CCCCOc1ccc(C=Nc2ccc(CC)cc2)cc1
T/C [6]: 101 % of control | T/C [7]: 97 % of control | T/C [8]: 103 % of control

[Cl][Pt+2][Cl].[NH-]CC(O)c1ccc2oc3ccccc3c2c1.[NH-]CC(O)c1ccc2oc3ccccc3c2c1 (stereo unspecified)
T/C (endpoint: median survival time, dose: 10.0 mg/kg/injection, schedule: Q04DX003 (ip), vehicle: saline): 104 % of control | T/C (endpoint: median survival time, dose: 20.0 mg/kg/injection, schedule: Q04DX003 (ip), vehicle: saline): 108 % of control | T/C (endpoint: median survival time, dose: 40.0 mg/kg/injection, schedule: Q04DX003 (ip), vehicle: saline): 104 % of control | T/C (endpoint: median survival time, dose: 80.0 mg/kg/injection, schedule: Q04DX003 (ip), vehicle: saline with Tween-80): 109 % of control | T/C (endpoint: median survival time, dose: 80.0 mg/kg/injection, schedule: Q04DX003 (ip), vehicle: saline): 108 % of control

CC(=O)O[C@H]1C(=O)[C@@]2(C)[C@H]([C@H](OC(=O)c3ccccc3)[C@]3(O)C[C@H](OC(=O)[C@H](O)[C@@H](NC(=O)c4ccccc4)c4ccccc4)C(C)=C1C3(C)C)[C@]1(OC(C)=O)CO[C@@H]1C[C@@H]2O
T/C (endpoint: mean survival time, dose: 1.25 mg/kg/injection, schedule: Q01DX009 (ip), vehicle: Klucel (hydroxypropylcellulose) (HPC)): 93 % of control | T/C (endpoint: mean survival time, dose: 2.5 mg/kg/injection, schedule: Q01DX009 (ip), vehicle: Klucel (hydroxypropylcellulose) (HPC)): 98 % of control | T/C (endpoint: mean survival time, dose: 5.0 mg/kg/injection, schedule: Q01DX009 (ip), vehicle: Klucel (hydroxypropylcellulose) (HPC)): 113 % of control and 102 % of control | T/C (endpoint: mean survival time, dose: 10.0 mg/kg/injection, schedule: Q01DX009 (ip), vehicle: Klucel (hydroxypropylcellulose) (HPC)): 115 % of control | T/C (endpoint: mean survival time, dose: 40.0 mg/kg/injection, schedule: Q01DX009 (ip), vehicle: Klucel (hydroxypropylcellulose) (HPC)): 107 % of control

O=NN(CCOS(=O)(=O)c1ccc([N+](=O)[O-])cc1)C(=O)NC1CCCCC1
T/C (endpoint: mean survival time, dose: 100.0 mg/kg/injection, schedule: Q01DX001 (ip), vehicle: other): 106 % of control | T/C (endpoint: mean survival time, dose: 200.0 mg/kg/injection, schedule: Q01DX001 (ip), vehicle: other): 153 % of control | T/C (endpoint: mean survival time, dose: 400.0 mg/kg/injection, schedule: Q01DX001 (ip), vehicle: other): 472 % of control

OC1C(I)CC(Cl)C2CCC[N-]C12.OC1C(I)CC(Cl)C2CCC[N-]C12.[Cu+2] (stereo unspecified)
T/C [3]: 96 % of control | T/C [4]: 92 % of control | T/C [5]: 88 % of control

CCCCCCCCC(O)C(O)CCCCCCCC(=O)O (stereo unspecified)
T/C (endpoint: mean survival time, dose: 100.0 mg/kg/injection, schedule: Q04DX003 (ip), vehicle: other): 93 % of control | T/C (endpoint: mean survival time, dose: 200.0 mg/kg/injection, schedule: Q04DX003 (ip), vehicle: other): 98 % of control | T/C (endpoint: mean survival time, dose: 400.0 mg/kg/injection, schedule: Q04DX003 (ip), vehicle: other): 95 % of control

Reference: PubChem BioAssay AID256 (DTP/NCI, 2004)
